According to patent publication US20240358865A1, “QUINOLINYL AND PRIDINYL CONTAINING COMPOUNDS TARGETING ON ALPHA-SYNUCLEIN FOR NEUROLOGICAL DISEASES” (Washington University, priority 2023, published 2024):
“Also recorded” adds a separate entry of the source.

Columns and labels:
alpha-synuclein fibrils = alpha-synuclein fibrils (Homo sapiens, UniProt P37840); experiment: Competitive binding to alpha-synuclein fibrils vs [3H]BF2846 (site 9); settings: for Ki / Ki (nM), in a-syn fibrils v.s. [3H]BF2846: alpha-synuclein fibrils, radioligand [3H]BF2846, binding site 9; for Ki: read-out: Ki (nM), in a-syn fibrils v.s. [3H]BF2846; for max % inh_site9: maximal inhibition of [3H]BF2846 binding to alpha-synuclein fibrils
AD brain tissue = AD brain tissue (Homo sapiens, UniProt P05067); experiment: Competitive binding in AD brain tissue vs [3H]PiB; settings: for Ki: AD brain tissue, radioligand [3H]PiB; for max % Inh_PiB: maximal inhibition of [3H]PiB binding in AD brain tissue
Chain of AD brain tissue (P05067 whole entry): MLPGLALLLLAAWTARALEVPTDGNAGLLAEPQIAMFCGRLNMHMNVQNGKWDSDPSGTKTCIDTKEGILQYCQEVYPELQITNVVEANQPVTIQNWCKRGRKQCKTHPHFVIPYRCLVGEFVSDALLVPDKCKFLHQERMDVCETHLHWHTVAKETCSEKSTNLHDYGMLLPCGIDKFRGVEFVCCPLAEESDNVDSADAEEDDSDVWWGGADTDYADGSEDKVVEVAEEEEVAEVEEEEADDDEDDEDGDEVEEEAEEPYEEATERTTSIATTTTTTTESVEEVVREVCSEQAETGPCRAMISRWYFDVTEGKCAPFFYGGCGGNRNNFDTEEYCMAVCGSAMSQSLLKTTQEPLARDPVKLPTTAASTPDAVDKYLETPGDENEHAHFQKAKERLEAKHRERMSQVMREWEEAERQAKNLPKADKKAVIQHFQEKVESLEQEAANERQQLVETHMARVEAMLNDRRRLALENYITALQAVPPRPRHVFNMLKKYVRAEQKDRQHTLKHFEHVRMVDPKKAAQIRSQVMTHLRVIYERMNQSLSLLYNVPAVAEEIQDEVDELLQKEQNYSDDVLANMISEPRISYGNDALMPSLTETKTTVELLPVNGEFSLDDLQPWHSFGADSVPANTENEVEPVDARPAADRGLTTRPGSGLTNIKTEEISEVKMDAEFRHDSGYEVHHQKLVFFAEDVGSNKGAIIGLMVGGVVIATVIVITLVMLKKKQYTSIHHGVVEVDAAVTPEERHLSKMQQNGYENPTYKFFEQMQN
Procedure: The binding potency for Abeta was determined using [^3H]PIB for these new compounds (FIG. 5B).
If the Ki value is smaller, these compounds are potent for AD brain tissue binding and are not selective for alpha-synuclein over abeta, or PD over AD.

[1] = biological target: T1, α-synuclein fibrils amplified from PD tissue (Homo sapiens, UniProt P37840); experiment: Direct radioligand (homologous competitive) binding assay; settings: read-out: binding affinity for α-synuclein fibrils
T1 construct: from tissue; host or cells: fibrils amplified from PD tissue (Banner amplified fibrils are mentioned)
Text: (§1) The radiosynthesis of [^18F]TZ83-41 was accomplished by a two-step procedure with [^18F]fluoroethyl ptoluenesulfonate as a prosthetic group, followed by O-alkylation to the quinolinyl-containing phenol group. [^18F]TZ80-156 was synthesized starting from the allylic bromide precursor via nucleophilic halogen exchange (halex) reaction with [^18F]fluoride, followed by deprotection of the N-Boc amine with trifluoroacetic acid. Homologous competitive binding assays with α-synuclein fibrils amplified from PD tissue were used to determine the direct binding affinity of the two radioligands. The biodistribution study was performed in male Sprague Dawley (SD) rats at four time points (5, 30, 60 min and 120 min) after intravenous injection of the radiotracer. The uptake of radioactivity was calculated as percentage injected dose per gram (% ID/gram). Both radiotracers were evaluated with microPET imaging using a Focus 220 microPET scanner to collect dynamic scans after intravenous injection into male macaques (NHP) (FIGS. 1A-1C).
(§2) The radioligands [^18F]TZ83-41 and [^18F]TZ80-156 were successfully produced in 17±3% (n=2) and 25±5% (n=2) radiochemical yield (RCY) respectively with high molar activity (>37 GBq/μmol) and high radiochemical purity (>99%), at the end of synthesis (EOS).

[2] = Biodistribution study in rats; assay type: in vivo, Sprague Dawley (SD) rats
Text: as §1

[3] = test system: Alzheimer's disease brain tissue homogenate; experiment: Direct radioligand binding to Alzheimer's disease brain tissue homogenate
Text: as §2

[4] = PET studies in the brains of nonhuman primates (Example 3); assay type: in vivo
Text: A PET study in nonhuman primates found uptake of [^11C]TZ61-84 (FIG. 3C).
Another PET study of [^18F]TZ80-156 and [^18F]TZ83-41 in nonhuman primates also found uptake (FIG. 4A).
A further PET study also found uptake of several additional compounds, including [^18F]TZ80-156 and [^18F]TZ83-41 (FIG. 4B).

[5] = MicroPET imaging of the macaque (NHP) brain; assay type: in vivo; settings: for crossing of the blood brain barrier: NHP; for brain standardized uptake value (SUV) maximum: NHP brain, intravenous; for brain standardized uptake value (SUV) maximum / washout from the NHP brain: microPET
Text: as §1

[6] = NHP plasma radiometabolite study (column-switching HPLC); assay type: in vivo, Monkey; settings: for Peak B (%) (parental tracer): monkey plasma
Text: Monkey arterial/venous blood samples were collected at various intervals during the PET scans to measure the radio metabolite profile using the column-switching HPLC system equipped with an Oasis HLB online capture column (80 Å, 15 μm, 3.9 mm×20 mm, Waters 186001414) with Universal Guard Column holder (WAT046910, Waters) and a Agilent ZORBAX Eclipse XDB-C18 analytical column (5 μm, 250×4.6 mm, Part No. 990967-902), following a published protocol (Hilton J, et al., Nucl Med Biol. 2000 August; 27(6):627-30; Cai Z, et al., ACS Chem Neurosci. 2020 Feb. 19; 11(4):592-603).
Briefly, blood samples (vary with volume, 4-8 mL) were collected at 5, 15, 30, 60, 90 min post-injection of radiotracer. The whole blood was centrifuged at RCF 1300 g for 5 min to separate the blood cells and obtain plasma. Clean supernatant plasma was collected and added into solid urea to eliminate competitive protein binding and to allow complete backflush of the parent compound and metabolites from the capture column to analytical column. Typically, 3.2 mL of plasma is added to 2.12 g of urea to yield a final concentration of 8 M urea and a final volume of about 4.5 mL. The plasma-urea mix was then filtered through a Whatman® GD/X syringe filters (pore size 1 μm, diam. 13 mm, WHA68841310, Sigma, USA) and injected into a 5 mL HPLC loop concatenating with the capture column, which eluted with 1% acetonitrile in ammonium formate (0.1 M, pH=4.5) at 2 mL/min for 4 min. The enriched radioactivity in the short capture column was reverse flowed into an analytical C18 column with 60% acetonitrile and 40% ammonium formate (0.1 M, pH=4.5) at a flow rate of 1.0 mL/min for 25 min.
The radioactive peak B is the parental [^18F]TZ83-41 tracer with retention time of 14.3 min; one radiometabolite is peak A at 6.8 min (FIG. 2A and FIG. 2B).

SMILES	Ki (alpha-synuclein fibrils)	max % inh_site9 (alpha-synuclein fibrils)	Ki (AD brain tissue)	max % Inh_PiB (AD brain tissue)	also measured
COc1ccc(Nc2ccc3cc(O)ccc3n2)cn1 [TZ61-23]	1.56 nM	20%	36 ± 37 nM	30%	
COc1ccc(Nc2ccc3cc(OC/C=C/I)ccc3n2)cn1 [TZ61-84]	21.5 ± 34 nM	100%	13.2 ± 17.2 nM	90%	
COc1ccc(Nc2nc3ccccc3cc2N)cn1 [TZ64-73]	4.6 nM	20%	6.6 ± 2.7 nM	30%	
COc1ccc(Nc2ccc3ccc(N)cc3n2)cn1 [TZ64-87]	3.07 nM	50%	36 ± 30 nM	30%	
COc1ccc2nc(Nc3ccc(C=O)o3)ccc2c1 [TZ64-91]	1.4 nM	70%	53 ± 34 nM	50%	
COc1ccc(Nc2ccc3cc(Br)ccc3n2)cn1 [TZ64-105]	18.7 nM	50%	> 1000 nM		
CCc1ccc(Nc2ccc3cc(OCCN4CCCCC4)ccc3n2)cn1 [TZ80-30]	14.3 ± 25.4 nM	100%	158 ± 36 nM	80%	
COc1ccc(Nc2ccc3cc(OC(F)F)ccc3n2)cn1 [TZ80-37]	22.9 ± 28.2 nM	60%	99 ± 90 nM	70%	
COc1ccc(Nc2ccc3cc(OCc4ccncc4)ccc3n2)cn1 [TZ80-42]	16.6 ± 22.6 nM	70%	72 ± 56 nM	60%	
COc1ccc(Nc2ccc3cc(OCCF)ccc3n2)cn1.Cl [TZ80-55]	26.1 nM	70%	> 1000 nM		
COc1ccc2nc(Nc3ccnc(OC)c3)ccc2c1.Cl [TZ80-59-B]	17.9 ± 31.7 nM	70%	108 ± 73 nM	100%	
COc1ccc(Nc2ccc3cc(OCc4cccnc4)ccc3n2)cn1.Cl [TZ80-66-B]	30.4 ± 42.1 nM	70%	25.2 ± 21.7 nM	80%	
COc1cccc(COc2ccc3nc(Nc4ccc(OC)nc4)ccc3c2)c1 [TZ80-77]	32.8 ± 43.8 nM	100%	15 ± 23.5 nM	100%	
COc1ccc2nc(Nc3nc4ccc(N(C)C)cc4s3)ccc2c1 [TZ80-83]	24.1 ± 39.7 nM	100%	50 ± 36 nM	80%	
CSc1ccc(Nc2ccc3cc(OC/C=C/I)ccc3n2)cn1 [TZ80-106]	15 ± 12.4 nM	100%	> 1000 nM		
COc1ccc(Nc2ccc3cc(OC/C=C/CF)ccc3n2)cn1 [TZ80-156]	14.9 ± 19.1 nM	100%	> 1000 nM		

SMILES	Ki (alpha-synuclein fibrils)	max % inh_site9 (alpha-synuclein fibrils)	Ki (AD brain tissue)	max % Inh_PiB (AD brain tissue)	also measured
CC(C)Oc1ccc(Nc2ccc3cc(OCCF)ccc3n2)cn1 [TZ83-39]	30.1 nM	60%	142 ± 103 nM	20%	
CCOc1ccc(Nc2ccc3cc(OCCF)ccc3n2)cn1.Cl [TZ83-40]	13.3 ± 26.1 nM	60%	354 ± 407 nM	40%	
CCCOc1ccc(Nc2ccc3cc(OCCF)ccc3n2)cn1 [TZ83-41]	12.5 nM	60%	362 ± 372 nM	40%	
COc1ccc2nc(Nc3cc(-c4ccccc4)n[nH]3)ccc2c1 [TZ88-5]	55.6 nM	40%	7.1 ± 10.5 nM	100%	
COc1ccc2c(c1)CCC(Nc1cc(C)n[nH]1)=N2 [TZ88-7]			90 ± 155 nM	90%	Ki (nM), in a-syn fibrils v.s. [3H]BF2846 (alpha-synuclein fibrils): None
COc1ccc2nc(Nc3ccc(-n4cccn4)nc3)ccc2c1 [TZ88-11]			46 ± 78 nM	70%	Ki (nM), in a-syn fibrils v.s. [3H]BF2846 (alpha-synuclein fibrils): None
COc1ccc2nc(Nc3ccc(N4CCOCC4)nc3)ccc2c1 [TZ88-18]			1.6 ± 0.6 nM	100%	Ki (nM), in a-syn fibrils v.s. [3H]BF2846 (alpha-synuclein fibrils): None
COc1ccc2nc(Nc3ccc4cn[nH]c4c3)ccc2c1 [TZ88-21]			5.8 ± 4.3 nM	100%	Ki (nM), in a-syn fibrils v.s. [3H]BF2846 (alpha-synuclein fibrils): None
COc1ccc2nc(Nc3ccc(NC(C)=O)nc3)ccc2c1 [TZ88-27]			> 1000 nM		Ki (nM), in a-syn fibrils v.s. [3H]BF2846 (alpha-synuclein fibrils): None
COc1ccc(Nc2ccc3cc(OCCF)ccc3n2)cn1 [TZ90-3]	34 ± 75.3 nM		10.8 ± 8.3 nM	100%	
COc1ccc2cc(Nc3ccc(OC)nc3)ncc2c1 [TZ90-4]	46.2 ± 39.2 nM	Shallow	3.1 ± 2.3 nM	100%	
COc1ccc(Nc2ccc3cc(OC)ccc3n2)cc1 [TZ90-8]		Shallow	2 ± 2.6 nM	100%	
COc1ccc2nc(/C=C/c3nc4ccc(OC)cc4s3)ccc2c1 [TZ90-21]	129 ± 77 nM		0.19 nM	30%	
COc1ccc(Nc2ccc3cc(OC/C=C/C[18F])ccc3n2)cn1 [[^18F]TZ80-156]					Kd [1]: 35 nM; bone uptake ([2]; 5 min): 0.45; brain uptake ([2]; 5 min): 0.86 % ID/gram; bone uptake ([2]; 30 min): 2.18; brain uptake ([2]; 30 min): 0.25 % ID/gram; brain uptake ([2]; 60 min): 0.16 % ID/gram; bone uptake ([2]; 120 min): 3.09; defluorination ([2]; judged from bone uptake): Significant defluorination; binding to Alzheimer's disease brain tissue homogenate [3]: little to no binding; brain uptake in PET study [4]: found uptake; crossing of the blood brain barrier [5]: crossed the blood brain barrier; brain standardized uptake value (SUV) maximum [5]: ~2.0; washout from the NHP brain [5]: favorable washout rate; also recorded: favorable washout kinetics
CCCOc1ccc(Nc2ccc3cc(OCC[18F])ccc3n2)cn1 [[^18F]TZ83-41]					Kd [1]: 7.6 nM; brain uptake ([2]; from 5 to 120 min): 0.71˜0.24 % ID/gram; binding to Alzheimer's disease brain tissue homogenate [3]: little to no binding; brain uptake in PET study [4]: found uptake; Peak B (%) (parental tracer) ([6]; 5 min post-injection): 92%; Peak B (%) (parental tracer) ([6]; 15 min post-injection): 69%; Peak B (%) (parental tracer) ([6]; 30 min post-injection): 59%; Peak B (%) (parental tracer) ([6]; 60 min post-injection): 47%; Peak B (%) (parental tracer) ([6]; 90 min post-injection): 38%; lipophilic radiometabolite entering the brain ([6]; nonhuman primate plasma samples post injection): no lipophilic radiometabolite; crossing of the blood brain barrier [5]: crossed the blood brain barrier; brain standardized uptake value (SUV) maximum [5]: ~2.0; washout from the NHP brain [5]: favorable washout rate; also recorded: favorable washout kinetics; also recorded: suitable brain washout pharmacokinetics; brain uptake (in words) ([5]; nonhuman primate brain imaging): high brain uptake
